Where two headings read alike, the source gives them in different places. Marks after values point to notes of the source that are not given here.
How the values were obtained:
[1] = for Solubility: 23° C., 2 days stirring, theoretical concentration based on sample weight, all dissolved
Description: Table 1. It will be understood that concentrations of adrenergic agonists other than 0.5% may be used, so long as they have therapeutic activity. Likewise, the temperature may be varied, for example, solubility curves may be performed at 37° C. (98.6° F.). The formulation vehicle was prepared by first dissolving polyvinyl alcohol (PVA) in water. The PVA was added to approximately ⅓ of the required total amount of purified water with constant stirring. The slurry was stirred for 20-30 minutes and then heated to 80-95° C. with constant stirring. The mixture was removed from the heat source within 1 hour after having reached the temperature of 80-90° C. and stirred for an additional 10 minutes to ensure homogeneity (Part I). The other ingredients of the Ophthalmic Solution, except for Brimonidine tartrate, were dissolved in a separate container with an additional ⅓ of the required total amount of purified water (Part II). The PVA mixture (Part I) was then quantitatively transferred to Part II using several rinse volumes of purified water. The solution was adjusted to final volume with purified water without pH adjustment.
Brimonidine tartrate was weighed and transferred to a 10 mL test tube containing 5 mL of the formulation vehicle described above. The pH of each sample was then adjusted to a desired value using dilute sodium hydroxide and/or dilute hydrochloric acid. The samples were placed in a rack on a stir plate and stirred at high speed to achieve uniform mixing for 2 days; a partition was placed between the rack and the stir plate to prevent any heat diffusion from the stir plate to the samples.
At the end of two days of stirring, the pH value of each sample was measured, and then approximately 1 mL of each sample was placed in a micro centrifuge tube (polypropylene) and centrifuged at 4,000 rpm for 10 minutes. The supernatant was filtered through a 1 μm filter unit (Whatman, 13 mm, PTFE). The first 3-4 drops of the filtrate were discarded; the rest of the filtrate was received and diluted quantitatively with HPLC mobile phase. […] A control of […] Brimonidine tartrate was prepared in the formulation vehicle at pH 6.3-6.5 and assayed before (untreated) and after (treated) centrifugation and filtration. This was done to evaluate the potential loss of Brimonidine tartrate in these two steps of the sample preparation. To ensure reproducibility, the study was repeated on consecutive days.

[2] = for Solubility of Brimonidine tartrate (%): 15 days; for soluble Brimonidine tartrate: FIG. 1
Description: The pH-solubility profiles of Brimonidine tartrate in compositions (solutions) containing SECs and oxy-chloro components were determined. Particularly, the effects of sodium carboxymethylcellulose (CMC), an SEC, on the solubility of Brimonidine tartrate at various pH conditions were determined. The various concentrations of CMC tested with Brimonidine tartrate were 0%, 0.056%, 0.17%, 0.5%, 1.5% (w/v), Table III.
The samples tested also contained isotonic components, buffer components, and stabilized chlorine dioxide (Purite™), Table III. Sodium carboxymethyl-cellulose, sodium chloride, potassium chloride, calcium chloride dihydrate, and magnesium chloride hexahydrate were USP grade. Boric acid and sodium borate decahydrate were NF grade.
Each sample (1 through 5) was subjected to a range of pH's from about 7 to about 10. The vials containing the sample solutions were placed on a laboratory rotator and left for equilibration for fifteen days at room temperature (^˜21° C.). The sample solutions were filtered using a 25 mm diameter polysulfone cellulose acetate syringe type filter with 0.45 μm pore size. The filtered solutions were assayed for Brimonidine.
Conventional HPLC and detection techniques were used to detect and determine the concentrations of soluble Brimonidine tartrate. […] The solubility is plotted against pH for each CMC concentration. The experimental data points were fitted to a modified Henderson-Hasselbalch equation using a nonlinear least squares routine (Deltagraph version 4.0 DeltaPoint, Inc.), FIG. 1.

For “5-bromo-6-(2-imidozolin-2-ylamino) quinoxaline [Brimonidine tartrate]”, the “Concentration of Brimonidine tartrate in control after centrifugation and filtration step” value ([1]; Control (treated), formulation vehicle at pH 6.3-6.5, Study 1) was 0.484^d % w/v, the “Concentration of Brimonidine tartrate in control before centrifugation and filtration step” value ([1]; Control (untreated), formulation vehicle at pH 6.3-6.5, Study 1) was 0.486^c % w/v and the Solubility ([1]; Study 1, sample 1, pH 5.55, Ophthalmic Solution vehicle) was “≦164.4^b % w/v”. For the same substance, the Solubility ([1]; Study 2, sample 1, pH 5.50, Ophthalmic Solution vehicle) was “≦200.6^b % w/v”, the “Solubility of Brimonidine tartrate (%)” value ([2]; 0% CMC, pH 6.68, room temperature (~21° C.)) was 1.4256% and the “Solubility of Brimonidine tartrate (%)” value ([2]; 0% CMC, pH 7.11, room temperature (~21° C.)) was 0.2064%. For the same substance, the “Solubility of Brimonidine tartrate (%)” value ([2]; 0% CMC, pH 7.68, room temperature (~21° C.)) was 0.0786%, the “Solubility of Brimonidine tartrate (%)” value ([2]; 0% CMC, pH 8.50, room temperature (~21° C.)) was 0.0286% and the “Solubility of Brimonidine tartrate (%)” value ([2]; 0% CMC, pH 10.09, room temperature (~21° C.)) was 0.0218%. For the same substance, the “Solubility of Brimonidine tartrate (%)” value ([2]; 0.056% CMC, pH 6.67, room temperature (~21° C.)) was 0.9302%, the “Solubility of Brimonidine tartrate (%)” value ([2]; 0.056% CMC, pH 7.11, room temperature (~21° C.)) was 0.2828% and the “Solubility of Brimonidine tartrate (%)” value ([2]; 0.056% CMC, pH 7.77, room temperature (~21° C.)) was 0.0721%. The “Solubility of Brimonidine tartrate (%)” value ([2]; 0.056% CMC, pH 9.93, room temperature (~21° C.)) was 0.0234%, the “Solubility of Brimonidine tartrate (%)” value ([2]; 0.17% CMC, pH 6.68, room temperature (~21° C.)) was 1.4200% and the “Solubility of Brimonidine tartrate (%)” value ([2]; 0.17% CMC, pH 6.93, room temperature (~21° C.)) was 0.7302%. The “Solubility of Brimonidine tartrate (%)” value ([2]; 0.17% CMC, pH 7.81, room temperature (~21° C.)) was 0.0735%, the “Solubility of Brimonidine tartrate (%)” value ([2]; 0.17% CMC, pH 8.55, room temperature (~21° C.)) was 0.0328% and the “Solubility of Brimonidine tartrate (%)” value ([2]; 0.17% CMC, pH 10.05, room temperature (~21° C.)) was 0.0241%. The “Solubility of Brimonidine tartrate (%)” value ([2]; 0.5% CMC, pH 6.67, room temperature (~21° C.)) was 1.4464%, the “Solubility of Brimonidine tartrate (%)” value ([2]; 0.5% CMC, pH 7.10, room temperature (~21° C.)) was 0.3693% and the “Solubility of Brimonidine tartrate (%)” value ([2]; 0.5% CMC, pH 7.56, room temperature (~21° C.)) was 0.1451%. The “Solubility of Brimonidine tartrate (%)” value ([2]; 0.5% CMC, pH 8.46, room temperature (~21° C.)) was 0.0313%, the “Solubility of Brimonidine tartrate (%)” value ([2]; 0.5% CMC, pH 9.94, room temperature (~21° C.)) was 0.0250% and the “Solubility of Brimonidine tartrate (%)” value ([2]; 1.5% CMC, pH 7.35, room temperature (~21° C.)) was 0.1904%. For the same substance, the “Solubility of Brimonidine tartrate (%)” value ([2]; 1.5% CMC, pH 8.10, room temperature (~21° C.)) was 0.0498%, the “Solubility of Brimonidine tartrate (%)” value ([2]; 1.5% CMC, pH 8.67, room temperature (~21° C.)) was 0.0311% and the “Solubility of Brimonidine tartrate (%)” value ([2]; 1.5% CMC, pH 10.11, room temperature (~21° C.)) was 0.0222%. For the same substance, the “effect of CMC concentration on solubility” value ([2]; FIG. 1, 0-1.5% CMC) was “tends to increase with increasing CMC concentrations”, the “soluble Brimonidine tartrate” value ([2]; pH 7.5, 0% CMC) was 1000 ppm and the “soluble Brimonidine tartrate” value ([2]; pH 7.5, 0.056% CMC) was 1300 ppm. For the same substance, the “soluble Brimonidine tartrate” value ([2]; pH 7.5, 0.17% CMC) was 1300 ppm, the “soluble Brimonidine tartrate” value ([2]; pH 7.5, 0.5% CMC) was 1600 ppm and the “soluble Brimonidine tartrate” value ([2]; pH 7.5, 1.5% CMC) was “about 1400 ppm”.
